# From patent US4479951A, “1.4;3.6-Dianhydrohexitol nitrates substituted by purine bases, processes for their preparation and pharmaceutical compositions” (Dr. Willmar Schwabe GmbH & Co., priority 1980, dated 1984)
# Tested on: mongrel dogs
# Test: circulatory-pharmacological effectiveness on the narcotised dog, intravenous administration
# Format: in vivo
compound,measurement,setting,value
"Nc1ncnc2c1ncn2[C@H]1CO[C@H]2[C@@H]1OC[C@@H]2O[N+](=O)[O-] [1c/2c, 5-(9-Adenyl)-5-desoxy-1.4;3.6-dianhydro-L-iditol 2-nitrate]",APdiast: diastolic aorta pressure,40 min after i.v. 1 mg/kg,81.0 mm.Hg
same,APsyst: systolic aorta pressure,40 min after i.v. 1 mg/kg,126.6 mm.Hg
same,"BFFem: blood flow in the A. femoralis, referred to 20 kg. body weight",40 min after i.v. 1 mg/kg,46.3 mL/min
same,HF: heart frequency,40 min after i.v. 1 mg/kg,120.7 min⁻¹
same,"HLL: heart capacity left, referred to 20 kg. body weight",40 min after i.v. 1 mg/kg,0.76 W
same,"HLR: heart capacity right, referred to 20 kg. body weight",40 min after i.v. 1 mg/kg,89.3 mW
same,"HZV: heart minute volume, referred to 20 kg. body weight",40 min after i.v. 1 mg/kg,3.72 L/min
same,LVEDP: end diastolic pressure in the left ventricle,40 min after i.v. 1 mg/kg,4.41 mm.Hg
same,PAP: average pressure in the A. pulmonalis,40 min after i.v. 1 mg/kg,14.1 ±1.8 mm.Hg
same,PRA: pressure in the right atrium,40 min after i.v. 1 mg/kg,3.37 mm.Hg
same,"SV: beat volume, referred to 20 kg. body weight",40 min after i.v. 1 mg/kg,32.7 mL
same,"WAP: pulmonalis resistance, referred to 20 kg. body weight",40 min after i.v. 1 mg/kg,0.35 U
same,"WFem: femoralis resistance, referred to 20 kg. body weight",40 min after i.v. 1 mg/kg,0.27 KU
same,"WTP: total peripheral resistance, referred to 20 kg. body weight",40 min after i.v. 1 mg/kg,3.34 U
same,dp/dt: rate of pressure increase in the left ventricle,40 min after i.v. 1 mg/kg,2137.5 mm.Hg/sec.
same,APdiast: diastolic aorta pressure,50 min after i.v. 1 mg/kg,83.4 mm.Hg
same,APsyst: systolic aorta pressure,50 min after i.v. 1 mg/kg,131.2 mm.Hg
same,"BFFem: blood flow in the A. femoralis, referred to 20 kg. body weight",50 min after i.v. 1 mg/kg,50.6 mL/min
same,HF: heart frequency,50 min after i.v. 1 mg/kg,118.7 min⁻¹
same,"HLL: heart capacity left, referred to 20 kg. body weight",50 min after i.v. 1 mg/kg,0.75 W
same,"HLR: heart capacity right, referred to 20 kg. body weight",50 min after i.v. 1 mg/kg,83.6 mW
same,"HZV: heart minute volume, referred to 20 kg. body weight",50 min after i.v. 1 mg/kg,3.55 L/min
same,LVEDP: end diastolic pressure in the left ventricle,50 min after i.v. 1 mg/kg,4.69 mm.Hg
same,PAP: average pressure in the A. pulmonalis,50 min after i.v. 1 mg/kg,13.9 ±1.9 mm.Hg
same,PRA: pressure in the right atrium,50 min after i.v. 1 mg/kg,3.43 mm.Hg
same,"SV: beat volume, referred to 20 kg. body weight",50 min after i.v. 1 mg/kg,32.0 mL
same,"WAP: pulmonalis resistance, referred to 20 kg. body weight",50 min after i.v. 1 mg/kg,0.34 U
same,"WFem: femoralis resistance, referred to 20 kg. body weight",50 min after i.v. 1 mg/kg,0.26 KU
same,"WTP: total peripheral resistance, referred to 20 kg. body weight",50 min after i.v. 1 mg/kg,3.61 U
same,dp/dt: rate of pressure increase in the left ventricle,50 min after i.v. 1 mg/kg,2118.5 mm.Hg/sec.
same,APdiast: diastolic aorta pressure,60 min after i.v. 1 mg/kg,87.6 mm.Hg
same,APsyst: systolic aorta pressure,60 min after i.v. 1 mg/kg,133.1 mm.Hg
same,"BFFem: blood flow in the A. femoralis, referred to 20 kg. body weight",60 min after i.v. 1 mg/kg,50.4 mL/min
same,HF: heart frequency,60 min after i.v. 1 mg/kg,114.2 min⁻¹
same,"HLL: heart capacity left, referred to 20 kg. body weight",60 min after i.v. 1 mg/kg,0.79 W
same,"HLR: heart capacity right, referred to 20 kg. body weight",60 min after i.v. 1 mg/kg,89.5 mW
same,"HZV: heart minute volume, referred to 20 kg. body weight",60 min after i.v. 1 mg/kg,3.73 L/min
same,LVEDP: end diastolic pressure in the left ventricle,60 min after i.v. 1 mg/kg,4.78 mm.Hg
same,PAP: average pressure in the A. pulmonalis,60 min after i.v. 1 mg/kg,14.1 ±2.0 mm.Hg
same,PRA: pressure in the right atrium,60 min after i.v. 1 mg/kg,3.37 mm.Hg
same,"SV: beat volume, referred to 20 kg. body weight",60 min after i.v. 1 mg/kg,35.6 mL
same,"WAP: pulmonalis resistance, referred to 20 kg. body weight",60 min after i.v. 1 mg/kg,0.33 U
same,"WFem: femoralis resistance, referred to 20 kg. body weight",60 min after i.v. 1 mg/kg,0.26 KU
same,"WTP: total peripheral resistance, referred to 20 kg. body weight",60 min after i.v. 1 mg/kg,3.46 U
same,dp/dt: rate of pressure increase in the left ventricle,60 min after i.v. 1 mg/kg,2118.5 mm.Hg/sec.
same,APdiast: diastolic aorta pressure,90 min after i.v. 1 mg/kg,87.6 mm.Hg
same,APsyst: systolic aorta pressure,90 min after i.v. 1 mg/kg,136.9 mm.Hg
same,"BFFem: blood flow in the A. femoralis, referred to 20 kg. body weight",90 min after i.v. 1 mg/kg,50.8 mL/min
same,HF: heart frequency,90 min after i.v. 1 mg/kg,107.5 min⁻¹
same,"HLL: heart capacity left, referred to 20 kg. body weight",90 min after i.v. 1 mg/kg,0.82 W
same,"HLR: heart capacity right, referred to 20 kg. body weight",90 min after i.v. 1 mg/kg,91.5 mW
same,"HZV: heart minute volume, referred to 20 kg. body weight",90 min after i.v. 1 mg/kg,3.77 L/min
same,LVEDP: end diastolic pressure in the left ventricle,90 min after i.v. 1 mg/kg,5.25 mm.Hg
same,PAP: average pressure in the A. pulmonalis,90 min after i.v. 1 mg/kg,14.5 ±2.1 mm.Hg
same,PRA: pressure in the right atrium,90 min after i.v. 1 mg/kg,3.85 mm.Hg
same,"SV: beat volume, referred to 20 kg. body weight",90 min after i.v. 1 mg/kg,37.1 mL
same,"WAP: pulmonalis resistance, referred to 20 kg. body weight",90 min after i.v. 1 mg/kg,0.32 U
same,"WFem: femoralis resistance, referred to 20 kg. body weight",90 min after i.v. 1 mg/kg,0.27 KU
same,"WTP: total peripheral resistance, referred to 20 kg. body weight",90 min after i.v. 1 mg/kg,3.59 U
same,dp/dt: rate of pressure increase in the left ventricle,90 min after i.v. 1 mg/kg,2081.2 mm.Hg/sec.
